Reference: patent publication US20250057790A1, “AN INJECTABLE PHARMACEUTICAL COMPOSITION FOR THE TREATMENT OF RESPIRATORY DISEASES IN ANIMALS” (priority 2021, published 2025)
In brackets after ≈: the same amount, converted by molar mass.

How the values were obtained:
[1] = tested on: M. haemolytica; test: MIC determination, broth-microdilution (CLSI VET01-A4), field isolates; type: cell-based, Mannheimia haemolytica
Protocol: (§1) This study determined the in vitro activity Compound (A), the enantiomer of the compound of Formula (I), against different isolates of Actinobacillus (A.) pleuropneumoniae, Bordetella (B.) bronchiseptica, Mannheimia (M.) haemolytica, Pasteurella (P.) multocida, Histophilus (H.) somni and Glaesserella parasuis collected in different European countries.
(§2) The in vitro activity was determined by measuring the minimum inhibitory concentrations (MIC) according to CLSI document VET01-A4 [1] and by calculating MIC50 and MIC90.
(§3) A total of 193 field isolates were tested: 31 of A. pleuropneumoniae, 20 of B. bronchiseptica, 20 of H. somni, 20 H. parasuis, 55 of M. haemolytica and 47 of P. multocida. All bacteria were isolated from the respiratory tract of cattle and swine suffering from respiratory disease. All isolates were epidemiologically unrelated as specified by the different suppliers. E. coli ATCC 25922 (ID 6105) and M. haemolytica ATCC 33396 (ID 6374) were used as reference strains for testing isolates of B. bronchiseptica, M. haemolytica and P. multocida. A. pleuropneumoniae ATCC 27090 (ID 6314) and H. somni ATCC 700025 (ID 6315) were used as reference strains for the testing isolates of A. pleuropneumoniae, H. somni and Glaesserella parasuis. Additionally, H. parasuis (G. parasuis) ATCC 19417 was included as type strain for growth control.
(§4) • Mueller-Hinton agar (Becton Dickinson, Lot 9224866) • Cation-adjusted Mueller-Hinton broth, (CAVHB, Becton Dickinson, Lot 8190586) • Sheep blood, defibrinated (Thermo Scientific, Lot 37091500) • Chocolate agar, GC II with IsoVitalex™ (Becton Dickinson, Lot 0147695) • GC-agar base (Becton Dickinson, Lot 6082608) • Hemoglobin solution (Becton Dickinson, Lot 7142854) • Vitox (Oxoid, Lot 2344976) • Veterinary fastidious Medium (VFM), prepared according to CLSI document VET01-A4 [1], containing: • CAMHB (Becton Dickinson, Lot 8190586) • Yeast extract (Sigma, Lot BCBS5470V) • Lysed horse blood (Thermo Scientific, Lot 35875000) • Supplement C™ (Becton Dickinson, Lot 8030960) • Deionized water
(§5) The MICs for all isolates except for H. somni and Glaesserella parasuis isolates, were determined by using the broth-microdilution method according to CLSI document VET01-A4 [1]. For isolates of H. somni and Glaesserella parasuis the agar-dilution method with chocolate agar GC II, was used. The test concentration range for all compounds was 16 μg/mL to 0.016 μg/mL.
(§6) The MIC results were interpreted according to the CLSI document VET01-S3 [2]. […] All wells containing test item were compared with the growth-control wells. The lowest concentration of compound at which no visible growth (i.e. no turbidity) was detected by the unaided eye was recorded as the MIC. If a “trailing endpoint” occurs, the MIC is defined as the first concentration at which a markedly reduction (about 90%) of the inoculum is observed.
(§7) For isolates tested by the agar-dilution method, results were interpreted according to the CLSI document VET01-S3 [2]. […] The MIC50 and MIC90 represent the concentrations at which a minimum of 50% or 90% of the isolates tested are inhibited.

[2] = tested on: Glaesserella parasuis; test: MIC determination, agar-dilution (chocolate agar GC II), field isolates; type: cell-based
Protocol: as §1, §2, §3, §4, §5, §7

[3] = tested on: H. somni; test: MIC determination, broth microdilution, field isolates; type: cell-based, Histophilus somni
Protocol: as §1, §2, §3, §4
[…] […] The test concentration range for all compounds was 16 μg/mL to 0.016 μg/mL.
as §6
[…] […] The MIC50 and MIC90 represent the concentrations at which a minimum of 50% or 90% of the isolates tested are inhibited.

[4] = Pharmacokinetic analysis in blood plasma of cattle after single SC administration; type: in vivo; conditions: for concentration at 0.25 h / concentration at 0.5 h / concentration at 1 h / concentration at 2 h / concentration at 4 h / concentration at 7 h / concentration at 10 h / concentration at 24 h / concentration at 32 h / concentration at 48 h / concentration at 72 h: bovine, plasma, sc, 10 mg/kg, cattle; for concentration at 0.25 h: 0.25 h after administration; for concentration at 0.5 h: 0.5 h after administration; for concentration at 1 h: 1 h after administration; for concentration at 2 h: 2 h after administration; for concentration at 4 h: 4 h after administration; for concentration at 7 h: 7 h after administration; for concentration at 10 h: 10 h after administration; for concentration at 24 h: 24 h after administration; for concentration at 32 h: 32 h after administration; for concentration at 48 h: 48 h after administration; for concentration at 72 h: 72 h after administration
Protocol: This study determined the bioavailability, the pharmacokinetic profile of Compound A formulations for subcutaneous (SC) injection in the blood plasma of cattle after a single subcutaneous (SC) administration of 10 mg/kg body weight. Concentrations in the blood plasma and bronchial epithelial lining fluid concentrations were determined. Additional tissues were collected post mortem for compound concentration determination.
Compound A was formulated as described in Examples 1 and 2 above. The aqueous solution formulation was Compound A 15% w/v, 15 w/v Kollisolv P124, 6% w/v benzyl alcohol, 7% w/v citric acid, and QS Water, pH 5.2. The oily suspension formulation was Compound A 17.5% w/v, suspended with 0.1% Kolliphor HS, and QS Miglyol812.
Samples were collected into K-EDTA coated Monovettes®. The samples were collected from the Vena jugularis externa. Preferred was the left side of the body, on the opposite side of administration.
The tubes were gently shaken to ensure proper mixing of blood with the anti-coagulant and placed in ice water until centrifugation. K-EDTA-Blood samples were centrifuged at approximately 4° C. and a relative centrifugal force of 2000 for 10 min. Within 2 hours after collection, two aliquots (1, 2) of approximately 0.5 mL blood plasma were pipetted off each sample into labeled plastic (polypropylene) freezer vials.
Pharmacokinetic (PK) parameters (Table 10-2) were calculated using the Phoenix WinNonlin 8.1 software. PK parameters (at least: Cmax, Tmax, AUClast, HL_Lambda_Z, VZ_F, MRTlast, CL_F and F %) to describe the PK profile after SC compound administration.

[5] = Mannheimia haemolytica, 55 isolates, broth microdilution
[6] = Glaesserella parasuis, 20 isolates, agar dilution
[7] = both aqueous solution group and oily suspension group, SC 10 mg/kg
[8] = SC 10 mg/kg 15% aqueous solution
[9] = SC 10 mg/kg 17.5% oily suspension

**Q.** With COCCNCc1ccc(C#Cc2ccc(C(=O)N[C@H](C(=O)NO)C(C)(C)N)cc2)cc1 [Compound A] as the compound, how does the MIC50 [1, 5] read?
**A.** The MIC50 was 0.5 µg/mL (≈ 1.14 µM).

**Q.** What about the MIC90 [1, 5] of the same compound?
**A.** Its MIC90 is 0.5 µg/mL (≈ 1.14 µM).

**Q.** What about the “Distribution of MICs: number of isolates with MIC 0.063 μg/mL” value ([1]; of 55 isolates tested) of the same compound?
**A.** Its value is 2.

**Q.** What about the “Distribution of MICs: number of isolates with MIC 0.125 μg/mL” value ([1]; of 55 isolates tested) of the same compound?
**A.** Its value is 6.

**Q.** And the “Distribution of MICs: number of isolates with MIC 0.25 μg/mL” value ([1]; of 55 isolates tested)?
**A.** The value was 15.

**Q.** And the “Distribution of MICs: number of isolates with MIC 0.5 μg/mL” value (“Distribution of MICs … with MIC 0.5 μg/mL” for short) ([1]; of 55 isolates tested)?
**A.** The value was 27.

**Q.** And the “Distribution of MICs: number of isolates with MIC 1 μg/mL” value (from here on “Distribution of MICs … with MIC 1 μg/mL”) ([1]; of 55 isolates tested)?
**A.** Its value is 5.

**Q.** And the MIC50 [2, 6]?
**A.** The MIC50 was 1 µg/mL (≈ 2.28 µM).

**Q.** And the MIC90 [2, 6]?
**A.** The MIC90 was 2 µg/mL (≈ 4.56 µM).

**Q.** And the “Distribution of MICs … with MIC 0.5 μg/mL” value ([2]; of 20 isolates tested)?
**A.** Its value is 2.

**Q.** What about the “Distribution of MICs … with MIC 1 μg/mL” value ([2]; of 20 isolates tested) of the same compound?
**A.** The value was 12.

**Q.** And the “Distribution of MICs: number of isolates with MIC 2 μg/mL” value ([2]; of 20 isolates tested)?
**A.** Its value is 5.

**Q.** And the “Distribution of MICs: number of isolates with MIC 4 μg/mL” value ([2]; of 20 isolates tested)?
**A.** Its value is 1.

**Q.** What about the MIC50 ([3]; Histophilus somni, 20 isolates) of the same compound?
**A.** The MIC50 was 0.5 µg/mL (≈ 1.14 µM).

**Q.** What about the MIC90 ([3]; Histophilus somni, 20 isolates) of the same compound?
**A.** The MIC90 was 1 µg/mL (≈ 2.28 µM).

**Q.** What about the “Distribution of MICs: number of isolates with MIC 0.125 μg/mL” value ([3]; of 20 isolates tested) of the same compound?
**A.** Its value is 1.

**Q.** What about the “Distribution of MICs: number of isolates with MIC 0.25 μg/mL” value ([3]; of 20 isolates tested) of the same compound?
**A.** The value was 5.

**Q.** What about the “Distribution of MICs … with MIC 0.5 μg/mL” value ([3]; of 20 isolates tested) of the same compound?
**A.** The value was 8.

**Q.** And the “Distribution of MICs … with MIC 1 μg/mL” value ([3]; of 20 isolates tested)?
**A.** The value was 5.

**Q.** And the “Distribution of MICs: number of isolates with MIC 2 μg/mL” value ([3]; of 20 isolates tested)?
**A.** Its value is 1.

**Q.** What about the “Compound persistence in cattle” value [4, 7] of the same compound?
**A.** Its value is “around 11 h”.

**Q.** What about the “Period of constant plasma plateau levels after treatment” value [4, 7] of the same compound?
**A.** The value was 4 to 10 h.

**Q.** And the “Time for which compound was detected in bovine plasma, on average” value [4, 7]?
**A.** The value was 72 h.

**Q.** What about the concentration at 0.25 h [4, 8] of the same compound?
**A.** Its concentration at 0.25 h is 1440 ng/mL.

**Q.** What about the concentration at 0.5 h [4, 8] of the same compound?
**A.** The concentration at 0.5 h was 1630 ng/mL.

**Q.** What about the concentration at 1 h [4, 8] of the same compound?
**A.** The concentration at 1 h was 1260 ng/mL.

**Q.** And the concentration at 2 h [4, 8]?
**A.** The concentration at 2 h was 567 ng/mL.

**Q.** And the concentration at 4 h [4, 8]?
**A.** The concentration at 4 h was 363 ng/mL.

**Q.** And the concentration at 7 h [4, 8]?
**A.** The concentration at 7 h was 395 ng/mL.

**Q.** What about the concentration at 10 h [4, 8] of the same compound?
**A.** The concentration at 10 h was 320 ng/mL.

**Q.** What about the concentration at 24 h [4, 8] of the same compound?
**A.** Its concentration at 24 h is 47 ng/mL.

**Q.** What about the concentration at 32 h [4, 8] of the same compound?
**A.** Its concentration at 32 h is 22 ng/mL.

**Q.** What about the concentration at 48 h [4, 8] of the same compound?
**A.** The concentration at 48 h was 11.5 ng/mL.

**Q.** What about the concentration at 72 h [4, 8] of the same compound?
**A.** Its concentration at 72 h is 6.55 ng/mL.

**Q.** And the concentration at 0.25 h [4, 9]?
**A.** Its concentration at 0.25 h is 1220 ng/mL.

**Q.** And the concentration at 0.5 h [4, 9]?
**A.** The concentration at 0.5 h was 1090 ng/mL.

**Q.** And the concentration at 1 h [4, 9]?
**A.** The concentration at 1 h was 571 ng/mL.

**Q.** What about the concentration at 2 h [4, 9] of the same compound?
**A.** The concentration at 2 h was 413 ng/mL.

**Q.** What about the concentration at 4 h [4, 9] of the same compound?
**A.** Its concentration at 4 h is 356 ng/mL.

**Q.** And the concentration at 7 h [4, 9]?
**A.** Its concentration at 7 h is 433 ng/mL.

**Q.** What about the concentration at 10 h [4, 9] of the same compound?
**A.** The concentration at 10 h was 319 ng/mL.

**Q.** What about the concentration at 24 h [4, 9] of the same compound?
**A.** Its concentration at 24 h is 56.5 ng/mL.

**Q.** And the concentration at 32 h [4, 9]?
**A.** The concentration at 32 h was 30.8 ng/mL.

**Q.** What about the concentration at 48 h [4, 9] of the same compound?
**A.** Its concentration at 48 h is 13.2 ng/mL.

**Q.** And the concentration at 72 h [4, 9]?
**A.** The concentration at 72 h was 7.28 ng/mL.
